Values belong to the compound of their own block, whether it stands above or below them.
Tests used:
[1] = Hoechst 33342 nuclear staining; format: cell-based; settings: for Hoechst 33342 nuclear staining score, HeLa: HeLa cells; for Hoechst 33342 nuclear staining score, Jurkat: Jurkat cells; for Hoechst 33342 nuclear staining score, H460: H460 cells; for Hoechst 33342 nuclear staining score, Jily: Jily cells; for Hoechst 33342 nuclear staining score, MRC5: MRC5 cells;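 as to all read-outs here: apoptotic nuclei scored 0 none 1 weak under 50% of cells 2 strong over 50% of cells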
Protocol: This assay is performed in 96 well tissue culture plates. Appropriate number of cells (adherent cells: 3-5*10^3, suspension cells: 8-10*10^3) are being seeded out in 80 μl complete medium. Adherent cells are incubated for 24 h for proper spreading out before addition of test compounds while suspension cells are immediately treated with test compounds after seeding out. The test compounds are added in 20 μl complete medium containing max 5% DMSO. […] […] The assay plates are then further incubated for 30 min and subsequently analyzed with a standard inverted fluorescence microscope.
The readout allows the determination of the fraction of apoptotic nuclei as well as other morphological criteria specific for apoptosis as a function of the treatment. The following scores are used: 0 relating to no activity, 1 relating to weak activity comprising less than 50% of the cells and score 2 relating to strong activity comprising more than 50% of the cells.

MRC5 = assay: MTS proliferation assay; format: cell-based; settings: MRC5, 72 h
Protocol: (§1) The assay is performed in 96 well tissue culture plates. […] The test compounds are added in 20 μl complete medium containing max 5% DMSO. The final compound concentrations in the assays are 10 μM, 3 μM, 1 μM and 0.3 μM, respectively. The assay plates are incubated for 72 h at culture conditions. The MTS reagent is prepared according to the manufacturer's protocol (Promega G1111). 20 μl MTS reagent are added to each well, the assay plates are quickly spun and incubated for another 3 h at culture conditions. Subsequently, the plates are shortly shacked and absorption measured with a microplate-reader at 492 nm.

HeLa = assay: MTS proliferation assay; format: cell-based, human; settings: 72 h
Protocol: as §1

Jurkat = assay: MTS proliferation assay; format: cell-based, human; settings: 72 h
Protocol: as §1

[2] = conc 0.1 (final concentrations in μM), 24 h or 48 h incubation
[3] = conc 0.3 (final concentrations in μM), 24 h or 48 h incubation
[4] = conc 1 (final concentrations in μM), 24 h or 48 h incubation
[5] = conc 3 (final concentrations in μM), 24 h or 48 h incubation
[6] = conc 10 (final concentrations in μM), 24 h or 48 h incubation

SMILES: Cc1ccc(S(=O)(=O)n2cc(CNCCCN(C)C)cc2-c2ccc3c(c2)OCO3)cc1.Cl.Cl [2 × 2HCl]
Hoechst 33342 nuclear staining score, HeLa [1, 2]: 0
Hoechst 33342 nuclear staining score, HeLa [1, 3]: 0
Hoechst 33342 nuclear staining score, HeLa [1, 4]: 0
Hoechst 33342 nuclear staining score, HeLa [1, 5]: 0
Hoechst 33342 nuclear staining score, Jurkat [1, 2]: 0
Hoechst 33342 nuclear staining score, Jurkat [1, 3]: 0
Hoechst 33342 nuclear staining score, Jurkat [1, 4]: 0
Hoechst 33342 nuclear staining score, Jurkat [1, 5]: 0

SMILES: CCN(Cc1cc(-c2cccs2)n(S(=O)(=O)c2ccc(C)cc2)c1)c1ccc(OC)cc1OC [Example 1, 4(N-2,4-Dimethoxyphenyl-N-ethylaminomethyl)-2-(2-thienyl)-1-(p-toluene-sulfonyl)-pyrrole]
IC50 (MRC5): > 1000 nM
IC50 (HeLa): > 1000 nM

IC50 (HeLa; Homo sapiens): > 1000 nM
SMILES: Cc1ccc(S(=O)(=O)n2cc(CNCCCN(C)C)cc2-c2ccc3c(c2)OCO3)cc1 [Example 2, 4-(N-[3-Dimethylaminopropyl]-aminomethyl)-2-(3,4-methylenedioxyphenyl)-1-(p-toluenesulfonyl)-pyrrole]
IC50 (MRC5; Homo sapiens): > 1000 nM
Hoechst 33342 nuclear staining score, HeLa [1, 2]: 0
Hoechst 33342 nuclear staining score, HeLa [1, 3]: 0
Hoechst 33342 nuclear staining score, HeLa [1, 4]: 0
Hoechst 33342 nuclear staining score, HeLa [1, 5]: 0
Hoechst 33342 nuclear staining score, Jurkat [1, 2]: 0
Hoechst 33342 nuclear staining score, Jurkat [1, 3]: 0
Hoechst 33342 nuclear staining score, Jurkat [1, 4]: 0
Hoechst 33342 nuclear staining score, Jurkat [1, 5]: 0

SMILES: Cc1ccc(S(=O)(=O)n2cc(CNCCc3ccccc3)cc2-c2cccs2)cc1 [Example 7]
Hoechst 33342 nuclear staining score, HeLa [1, 2]: 0
Hoechst 33342 nuclear staining score, HeLa [1, 3]: 0
Hoechst 33342 nuclear staining score, HeLa [1, 4]: 0
Hoechst 33342 nuclear staining score, HeLa [1, 5]: 0
Hoechst 33342 nuclear staining score, Jurkat [1, 2]: 0
Hoechst 33342 nuclear staining score, Jurkat [1, 3]: 0
Hoechst 33342 nuclear staining score, Jurkat [1, 4]: 0
Hoechst 33342 nuclear staining score, Jurkat [1, 5]: 0
IC50 (HeLa): > 1000 nM

SMILES: Cc1ccc(S(=O)(=O)n2cc(CNc3ccc(N4CCOCC4)cc3)cc2-c2cccs2)cc1 [Example 9]
Hoechst 33342 nuclear staining score, HeLa [1, 2]: 0
Hoechst 33342 nuclear staining score, HeLa [1, 3]: 0
Hoechst 33342 nuclear staining score, HeLa [1, 4]: 0
Hoechst 33342 nuclear staining score, HeLa [1, 5]: 1 (weak activity comprising less than 50% of the cells)
Hoechst 33342 nuclear staining score, Jurkat [1, 2]: 0
Hoechst 33342 nuclear staining score, Jurkat [1, 3]: 0
Hoechst 33342 nuclear staining score, Jurkat [1, 4]: 0
Hoechst 33342 nuclear staining score, Jurkat [1, 5]: 2 (strong activity comprising more than 50% of the cells)
IC50 (HeLa): > 1000 nM

SMILES: Cc1ccc(S(=O)(=O)n2cc(CNCCCc3ccccc3)cc2-c2ccc3c(c2)OCO3)cc1 [Example 10]
IC50 (MRC5): > 1000 nM
Hoechst 33342 nuclear staining score, HeLa [1, 2]: 0
Hoechst 33342 nuclear staining score, HeLa [1, 3]: 0
Hoechst 33342 nuclear staining score, HeLa [1, 4]: 0
Hoechst 33342 nuclear staining score, HeLa [1, 5]: 0
Hoechst 33342 nuclear staining score, Jurkat [1, 2]: 0
Hoechst 33342 nuclear staining score, Jurkat [1, 3]: 0
Hoechst 33342 nuclear staining score, Jurkat [1, 4]: 0
Hoechst 33342 nuclear staining score, Jurkat [1, 5]: 0
IC50 (HeLa): > 1000 nM

SMILES: COc1ccc(CCNCc2cc(-c3ccc4c(c3)OCO4)n(S(=O)(=O)c3ccc(C)cc3)c2)cc1 [Example 11]
Hoechst 33342 nuclear staining score, HeLa [1, 2]: 0
Hoechst 33342 nuclear staining score, HeLa [1, 3]: 0
Hoechst 33342 nuclear staining score, HeLa [1, 4]: 0
Hoechst 33342 nuclear staining score, HeLa [1, 5]: 0
Hoechst 33342 nuclear staining score, Jurkat [1, 2]: 0
Hoechst 33342 nuclear staining score, Jurkat [1, 3]: 0
Hoechst 33342 nuclear staining score, Jurkat [1, 4]: 0
Hoechst 33342 nuclear staining score, Jurkat [1, 5]: 0
IC50 (HeLa): > 1000 nM

SMILES: Cc1ccc(S(=O)(=O)n2cc(CNCCCN3CCN(C)CC3)cc2-c2ccc3c(c2)OCO3)cc1.Cl.Cl [Example 13]
Hoechst 33342 nuclear staining score, HeLa [1, 2]: 0
Hoechst 33342 nuclear staining score, HeLa [1, 3]: 0
Hoechst 33342 nuclear staining score, HeLa [1, 4]: 0
Hoechst 33342 nuclear staining score, HeLa [1, 5]: 0
Hoechst 33342 nuclear staining score, Jurkat [1, 2]: 0
Hoechst 33342 nuclear staining score, Jurkat [1, 3]: 0
Hoechst 33342 nuclear staining score, Jurkat [1, 4]: 0
Hoechst 33342 nuclear staining score, Jurkat [1, 5]: 0

IC50 (HeLa): > 1000 nM
SMILES: Cc1ccc(S(=O)(=O)n2cc(CNc3ccc(CN4CCOCC4)cc3)cc2-c2ccc3c(c2)OCO3)cc1 [Example 41]
IC50 (MRC5): > 1000 nM
Hoechst 33342 nuclear staining score, HeLa [1, 3]: 0
Hoechst 33342 nuclear staining score, HeLa [1, 4]: 0
Hoechst 33342 nuclear staining score, HeLa [1, 5]: 0
Hoechst 33342 nuclear staining score, HeLa [1, 6]: 0
Hoechst 33342 nuclear staining score, Jurkat [1, 3]: 0
Hoechst 33342 nuclear staining score, Jurkat [1, 4]: 0
Hoechst 33342 nuclear staining score, Jurkat [1, 5]: 0
Hoechst 33342 nuclear staining score, Jurkat [1, 6]: 0

SMILES: Cc1ccc(S(=O)(=O)n2cc(CNCCc3ccccc3)cc2-c2ccc3c(c2)OCO3)cc1 [Example 43]
IC50 (MRC5): > 1000 nM
Hoechst 33342 nuclear staining score, HeLa [1, 3]: 0
Hoechst 33342 nuclear staining score, HeLa [1, 4]: 0
Hoechst 33342 nuclear staining score, HeLa [1, 5]: 0
Hoechst 33342 nuclear staining score, HeLa [1, 6]: 0
Hoechst 33342 nuclear staining score, Jurkat [1, 3]: 0
Hoechst 33342 nuclear staining score, Jurkat [1, 4]: 0
Hoechst 33342 nuclear staining score, Jurkat [1, 5]: 0
Hoechst 33342 nuclear staining score, Jurkat [1, 6]: 0
IC50 (HeLa): > 1000 nM

IC50 (HeLa): > 1000 nM
SMILES: Cc1ccc(S(=O)(=O)n2cc(CNc3ccccn3)cc2-c2ccc3c(c2)OCO3)cc1 [Example 44]
IC50 (MRC5): > 1000 nM
Hoechst 33342 nuclear staining score, HeLa [1, 3]: 0
Hoechst 33342 nuclear staining score, HeLa [1, 4]: 0
Hoechst 33342 nuclear staining score, HeLa [1, 5]: 0
Hoechst 33342 nuclear staining score, HeLa [1, 6]: 2 (strong activity comprising more than 50% of the cells)
Hoechst 33342 nuclear staining score, Jurkat [1, 3]: 0
Hoechst 33342 nuclear staining score, Jurkat [1, 4]: 0
Hoechst 33342 nuclear staining score, Jurkat [1, 5]: 0
Hoechst 33342 nuclear staining score, Jurkat [1, 6]: 2 (strong activity comprising more than 50% of the cells)

IC50 (HeLa): > 1000 nM
SMILES: Cc1ccc(S(=O)(=O)n2cc(CNc3ccc(S(N)(=O)=O)cc3)cc2-c2ccc3c(c2)OCO3)cc1 [Example 45]
IC50 (MRC5): > 1000 nM
Hoechst 33342 nuclear staining score, HeLa [1, 3]: 0
Hoechst 33342 nuclear staining score, HeLa [1, 4]: 0
Hoechst 33342 nuclear staining score, HeLa [1, 5]: 0
Hoechst 33342 nuclear staining score, HeLa [1, 6]: 1 (weak activity comprising less than 50% of the cells)
Hoechst 33342 nuclear staining score, Jurkat [1, 3]: 0
Hoechst 33342 nuclear staining score, Jurkat [1, 4]: 0
Hoechst 33342 nuclear staining score, Jurkat [1, 5]: 0
Hoechst 33342 nuclear staining score, Jurkat [1, 6]: 2 (strong activity comprising more than 50% of the cells)

IC50 (Jurkat): > 1000 nM
IC50 (HeLa): > 1000 nM
SMILES: Cc1ccc(S(=O)(=O)n2cc(-c3ccc(C(N)=O)cc3)cc2-c2ccc3c(c2)OCO3)cc1 [Example 47]
Hoechst 33342 nuclear staining score, HeLa [1, 2]: 0
Hoechst 33342 nuclear staining score, HeLa [1, 3]: 0
Hoechst 33342 nuclear staining score, HeLa [1, 4]: 2 (strong activity comprising more than 50% of the cells)
Hoechst 33342 nuclear staining score, HeLa [1, 5]: 2 (strong activity comprising more than 50% of the cells)
Hoechst 33342 nuclear staining score, Jurkat [1, 2]: 0
Hoechst 33342 nuclear staining score, Jurkat [1, 3]: 0
Hoechst 33342 nuclear staining score, Jurkat [1, 4]: 0
Hoechst 33342 nuclear staining score, Jurkat [1, 5]: 0

SMILES: COc1cc(-c2cc(-c3cncc(CN(C)C)c3)cn2S(=O)(=O)c2ccc(C)cc2)cc(OC)c1OC [Example 59]
IC50 (MRC5): > 1000 nM
Hoechst 33342 nuclear staining score, H460 ([1]; conc 0.1): 0
Hoechst 33342 nuclear staining score, H460 ([1]; conc 0.3): 0
Hoechst 33342 nuclear staining score, H460 ([1]; conc 1): 0
Hoechst 33342 nuclear staining score, H460 ([1]; conc 3): 2 (strong activity comprising more than 50% of the cells)
Hoechst 33342 nuclear staining score, HeLa ([1]; conc 0.1): 0
Hoechst 33342 nuclear staining score, HeLa ([1]; conc 0.3): 0
Hoechst 33342 nuclear staining score, HeLa ([1]; conc 1): 0
Hoechst 33342 nuclear staining score, HeLa ([1]; conc 3): 0
Hoechst 33342 nuclear staining score, Jily ([1]; conc 0.1): 0
Hoechst 33342 nuclear staining score, Jily ([1]; conc 0.3): 0
Hoechst 33342 nuclear staining score, Jily ([1]; conc 1): 0
Hoechst 33342 nuclear staining score, Jily ([1]; conc 3): 0
Hoechst 33342 nuclear staining score, Jurkat ([1]; conc 0.1): 0
Hoechst 33342 nuclear staining score, Jurkat ([1]; conc 0.3): 0
Hoechst 33342 nuclear staining score, Jurkat ([1]; conc 1): 0
Hoechst 33342 nuclear staining score, Jurkat ([1]; conc 3): 2 (strong activity comprising more than 50% of the cells)
Hoechst 33342 nuclear staining score, MRC5 ([1]; conc 0.1): 0
Hoechst 33342 nuclear staining score, MRC5 ([1]; conc 0.3): 0
Hoechst 33342 nuclear staining score, MRC5 ([1]; conc 1): 0
Hoechst 33342 nuclear staining score, MRC5 ([1]; conc 3): 0
Hoechst 33342 nuclear staining score, PBLs ([1]; conc 0.1): 0
Hoechst 33342 nuclear staining score, PBLs ([1]; conc 0.3): 0
Hoechst 33342 nuclear staining score, PBLs ([1]; conc 1): 0
Hoechst 33342 nuclear staining score, PBLs ([1]; conc 3): 0
IC50 (HeLa): > 1000 nM
